Experimental data reported in patent US20110166121A1 (LG LIFE SCIENCES LTD., priority 2008, published 2011).
pKi: −log10 of the molar value. Counter-ions that a name gives are not always drawn.

Tested on: Human platelet aggregation caused by ADP
Assay: Inhibition of ADP-induced platelet aggregation (Mimic-human PRP)
Format: cell-based
Details: 20 μM ADP, human platelet concentrate diluted with PPP, absorption at 595 nm
Method: Platelet Preparation for Aggregation Studies
Human platelet aggregation reaction test is a functional experiment method to verify whether a test compound is an agonist or an antagonist to ADP receptor. […] The platelet product isolated from whole blood was purchased from Chung-Nam blood center (Dae-joen, South Korea). The platelet was isolated from 400 mL of whole blood containing 56 mL of CPDA-1 anticoagulant. To isolate the platelet product, 400 mL of whole blood was centrifuged at 260×g for 5 minutes, and then obtained PRP (platelet rich plasma) was secondary centrifuged at 370×g for 6 minutes. Platelet pellet (10^9/mL) was suspended with 45 mL of plasma and then agitated over 1 hour at 22° C. blood reservoir to stabilize it. The stabilized platelet product was used in the experiment within 24 hours. PCs (Platelet Concentrates) were gently transferred to a new 50 ml-falcon tube. The number of platelet was counted by using animal blood counter (ABC Vet, ABX diagnostics, France). The volume of 30 mL of PCs collected from same donor was centrifuged at 1500 g for 10 min at room temperature to prepare platelet-poor plasma (PPP). The platelet count was adjusted to platelet number of 3˜4×10^8/mL by diluting with PPP.
Evaluation on Inhibitory Effect of ADP-Induced Aggregation
Inhibition of ADP-induced aggregation was determined in 96-well flat-bottom plates (Costar, USA) at room temperature. The diluted platelet was aliquoted into each well of 96 well plate in the volume of 188 μl. […] The platelet including test compounds was immediately mixed on a shaker at 1050 rpm for 1 min and incubated at room temperature for 20 min. Then, 10 μL volume of 400 μM ADP was added: the final concentration of 20 μM ADP in the total reaction volume of 0.2 mL/well. After shaking of the plate at room temperature for 3 min, the absorption of the samples was determined at 595 nm using a microtiter plate reader (Softmax, Molecular Devices).
A dose-dependent curve on serial dilutions of ADP was accomplished by adding vehicle (DMSO) instead of antagonists in order to calculate EC50 of ADP. Inhibition of aggregation was calculated from the increase of absorption at 595 nm at 3 min of the reaction incubation, compared to results of absorption between the 0 and 20 μM ADP control without antagonists. Sigmoidal dose-response curves and Ki were derived by non-linear regression analysis using the Prism software (GraphPad, San Diego Calif.).

| Compound | pKi |
| --- | --- |
| CCCc1cc2c(N3CCn4c(nnc4C(F)(F)F)C3)nc(OCCNC(=O)CO)nc2s1 [Example 3-60, 2-Hydroxy-N-{2-[6-propyl-4-(3-trifluoromethyl-5,6-dihydro-8H-[1,2,4]triazolo[4,3-a]pyrazin-7-yl)-thieno[2,3-d]pyrimidin-2-yloxy]-ethyl}-acetamide] | 9.15 |
| CCCc1cc2c(N3CCn4c(nnc4C(F)(F)F)C3)nc(OCCNC(=O)C(F)(F)F)nc2s1 [Example 3-61, 2,2,2-Trifluoro-N-{2-[6-propyl-4-(3-trifluoromethyl-5,6-dihydro-8H-[1,2,4]triazolo[4,3-a]pyrazin-7-yl)-thieno[2,3-d]pyrimidin-2-yloxy]-ethyl}-acetamide] | 8.27 |
| CCCc1cc2c(N3CCn4c(nnc4C(F)(F)F)C3)nc(OCCN3CCCC3=O)nc2s1 [Example 3-62, 1-{2-[6-Propyl-4-(3-trifluoromethyl-5,6-dihydro-8H-[1,2,4]triazolo[4,3-a]pyrazin-7-yl)-thieno[2,3-d]pyrimidin-2-yloxy]-ethyl}-pyrrolidin-2-one] | 8.72 |
| CCCc1cc2c(N3CCn4c(nnc4C(F)(F)F)C3)nc(-c3nc(C(=O)O)cs3)nc2s1 [Example 4-46, 2-[6-Propyl-4-(3-trifluoromethyl-5,6-dihydro-8H-[1,2,4]triazolo[4,3-a]pyrazin-7-yl)thieno[2,3-d]pyrimidin-2-yl]thiazole-4-carboxylic acid] | 7.60 |
| CCCC(=O)N[C@H]1CCN(c2nc(N3CCn4c(nnc4C(F)(F)F)C3)c3cc(CCC)sc3n2)C1 [Example 7-1, Hydrochloric acid salt of N-{(S)-1-[6-Propyl-4-(3-trifluoromethyl-5,6-dihydro-8H-[1,2,4]triazolo[4,3-a]pyrazin-7-yl)-thieno[2,3-d]pyrimidin-2-yl]-pyrrolidin-3-yl}-butyramide] | 7.96 |
| CCCc1cc2c(N3CCn4c(nnc4C(F)(F)F)C3)nc(N3CC[C@H](NC(=O)C(C)C)C3)nc2s1 [Example 7-2, Hydrochloric acid salt of N-{(S)-1-[6-Propyl-4-(3-trifluoromethyl-5,6-dihydro-8H-[1,2,4]triazolo[4,3-a]pyrazin-7-yl)-thieno[2,3-d]pyrimidin-2-yl]-pyrrolidin-3-yl}-isobutyramide] | 7.10 |
| CCCc1cc2c(N3CCn4c(nnc4C(F)(F)F)C3)nc(N3CC[C@@H](NC(C)=O)C3)nc2s1 [Example 7-3, Hydrochloric acid salt of N-{(R)-1-[6-Propyl-4-(3-trifluoromethyl-5,6-dihydro-8H-[1,2,4]triazolo[4,3-a]pyrazin-7-yl)-thieno[2,3-d]pyrimidin-2-yl]-pyrrolidin-3-yl}-acetamide] | 7.59 |
| CCCC(=O)N[C@@H]1CCN(c2nc(N3CCn4c(nnc4C(F)(F)F)C3)c3cc(CCC)sc3n2)C1 [Example 7-4, Hydrochloric acid salt of N-{(R)-1-[6-Propyl-4-(3-trifluoromethyl-5,6-dihydro-8H-[1,2,4]triazolo[4,3-a]pyrazin-7-yl)-thieno[2,3-d]pyrimidin-2-yl]-pyrrolidin-3-yl}-butyramide] | 7.12 |
| CCCc1cc2c(N3CCn4c(nnc4C(F)(F)F)C3)nc(N3CC[C@@H](NC(=O)C(C)C)C3)nc2s1 [Example 7-5, Hydrochloric acid salt of N-{(R)-1-[6-Propyl-4-(3-trifluoromethyl-5,6-dihydro-8H-[1,2,4]triazolo[4,3-a]pyrazin-7-yl)-thieno[2,3-d]pyrimidin-2-yl]-pyrrolidin-3-yl}-isobutyramide] | 7.49 |
| CCCc1cc2c(N3CCn4c(nnc4C(F)(F)F)C3)nc(N3CCC[C@@H](NC(C)=O)C3)nc2s1 [Example 7-6, Hydrochloric acid salt of N-{(R)-1-[6-Propyl-4-(3-trifluoromethyl-5,6-dihydro-8H-[1,2,4]triazolo[4,3-a]pyrazin-7-yl)-thieno[2,3-d]pyrimidin-2-yl]-piperidin-3-yl}-acetamide] | 7.74 |
